Data taken from US7323447B2, “Hepatitis C virus inhibitors” (Bristol-Myers Squibb Company, priority 2005, dated 2008).

Tests used:
[1] = molecular target: T1, HCV NS3/4A protease complex (BMS strain) (UniProt P27958); assay: FRET peptide assay to monitor HCV NS3/4A proteolytic activity, BMS strain; type: biochemical, Hepatitis C virus (genotype 1a); conditions: read-out: IC50 Range; HCV NS3/4A enzyme assay; Table 1
T1 construct: other: HCV NS3/4A enzyme assay; said of H77 and J4L6S; fused on or other part: Three-lysine solubilising tail at the NS4A C-terminus and a His tag from pET21b (Ni-NTA purification), for the H77 and J4L6S constructs
T1 sequence (P27958 1027-1657, one chain of several): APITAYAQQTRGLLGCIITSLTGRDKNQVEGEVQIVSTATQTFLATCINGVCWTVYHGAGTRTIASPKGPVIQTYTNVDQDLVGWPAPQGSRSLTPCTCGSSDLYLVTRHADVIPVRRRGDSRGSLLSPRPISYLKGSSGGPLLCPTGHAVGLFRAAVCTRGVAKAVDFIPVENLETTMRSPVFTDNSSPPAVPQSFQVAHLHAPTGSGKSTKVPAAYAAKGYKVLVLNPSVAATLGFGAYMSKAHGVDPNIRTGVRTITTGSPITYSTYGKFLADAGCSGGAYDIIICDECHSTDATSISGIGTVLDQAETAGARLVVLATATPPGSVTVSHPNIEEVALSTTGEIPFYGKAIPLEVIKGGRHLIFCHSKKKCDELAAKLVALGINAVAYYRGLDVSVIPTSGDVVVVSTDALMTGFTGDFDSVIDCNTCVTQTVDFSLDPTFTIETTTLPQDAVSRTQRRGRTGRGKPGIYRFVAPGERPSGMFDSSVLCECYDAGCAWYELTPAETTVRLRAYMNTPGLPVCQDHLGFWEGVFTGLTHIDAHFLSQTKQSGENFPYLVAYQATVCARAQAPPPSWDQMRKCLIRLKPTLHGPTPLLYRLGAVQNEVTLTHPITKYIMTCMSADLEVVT
Excerpt: HCV NS3 protease complexes, derived from the BMS strain, H77 strain or J4L6S strain, were generated, as described below. These purified recombinant proteins were generated for use in a homogeneous assay (see below) to provide an indication of how effective compounds of the present disclosure would be in inhibiting HCV NS3 proteolytic activity.
Serum from an HCV-infected patient was obtained from Dr. T. Wright, San Francisco Hospital. An engineered full-length cDNA (compliment deoxyribonucleic acid) template of the HCV genome (BMS strain) was constructed from DNA fragments obtained by reverse transcription-PCR (RT-PCR) of serum RNA (ribonucleic acid) and using primers selected on the basis of homology between other genotype 1a strains. From the determination of the entire genome sequence, a genotype 1a was assigned to the HCV isolate according to the classification of Simmonds et al. (See P Simmonds, K A Rose, S Graham, S W Chan, F McOmish, B C Dow, E A Follett, P L Yap and […] Marsden, J. Clin. Microbiol., 31(6), 1493-1503 (1993)). […] The infectious clones, H77 (1a genotype) and J4L6S (1b genotype) were obtained from R. Purcell (NIH) and the sequences are published in Genbank (AAB67036, see Yanagi, M., Purcell, R. H., Emerson, S. U. and Bukh, J. Proc. Natl. Acad. Sci. U.S.A. 94(16), 8738-8743 (1997); AF054247, see Yanagi, M., St Claire, M., Shapiro, M., Emerson, S. U., Purcell, R. H. and Bukh, J, Virology 244 (1), 161-172. (1998)).
NS3/4A protease complex-containing fractions were pooled and loaded on a desalting column Superdex-S200 pre-equilibrated with buffer D (25 mM HEPES, pH 7.5, 20% glycerol, 300 mM NaCl, 0.2% Triton X-100, 10 mM βME). Sample was loaded at a flow rate of 1 mL/min. NS3/4A protease complex-containing fractions were pooled and concentrated to approximately 0.5 mg/ml. The purity of the NS3/4A protease complexes, derived from the BMS, H77 and J4L6S strains, were judged to be greater than 90% by SDS-PAGE and mass spectrometry analyses. The enzyme was stored at −80° C., thawed on ice and diluted prior to use in assay buffer.
The purpose of this in vitro assay was to measure the inhibition of HCV NS3 protease complexes, derived from the BMS strain, H77 strain or J4L6S strain, as described above, by compounds of the present disclosure. This assay provides an indication of how effective compounds of the present disclosure would be in inhibiting HCV NS3 proteolytic activity.
In order to monitor HCV NS3/4A protease activity, an NS3/4A peptide substrate was used. The substrate was RET S1 (Resonance Energy Transfer Depsipeptide Substrate; AnaSpec, Inc. cat # 22991) (FRET peptide), described by Taliani et al. in Anal. Biochem. 240(2):60-67 (1996). The sequence of this peptide is loosely based on the NS4A/NS4B natural cleavage site for the HCV NS3 protease except there is an ester linkage rather than an amide bond at the cleavage site. The peptide also contains a fluorescence donor, EDANS, near one end of the peptide and an acceptor, DABCYL, near the other end. The fluorescence of the peptide is quenched by […] resonance energy transfer (RET) between the donor and the acceptor, but as the NS3 protease cleaves the peptide the products are released from RET quenching and the fluorescence of the donor becomes apparent.
The peptide substrate was incubated with one of the three recombinant NS3/4A protease complexes, in the absence or presence of a compound of the present disclosure. The inhibitory effects of a compound were determined by monitoring the formation of fluorescent reaction product in real time using a Cytofluor Series 4000.
Assay buffer: 50 mM HEPES, pH 7.5; 0.15 M NaCl; 0.1% Triton; 15% Glycerol; 10 mM βME. Substrate: 2 μM final concentration (from a 2 mM stock solution in DMSO stored at −20° C.). HCV NS3/4A protease type 1a (1b), 2-3 nM final concentration (from a 5 μM stock solution in 25 mM HEPES, pH 7.5, 20% glycerol, 300 mM NaCl, 0.2% Triton-X100, 10 mM βME). […]

[2] = test system: HCV replicon in HUH-7 cells; assay: HCV replicon FRET assay; type: cell-based, Hepatitis C virus (strain 1b); conditions: Hepatitis C virus, Huh-7, read-out: EC50 Range, HCV replicon cell assay; Table 1
Excerpt: An HCV replicon whole cell system was established as described by Lohmann V, Korner F, Koch J, Herian U, Theilmann L, Bartenschlager R., Science 285(5424): 110-3 (1999). This system enabled us to evaluate the effects of our HCV Protease compounds on HCV RNA replication. Briefly, using the HCV strain 1b sequence described in the Lohmann paper (Assession number: AJ238799), an HCV cDNA was synthesized by Operon Technologies, Inc. (Alameda, Calif.), and the full-length replicon was then assembled in plasmid pGem9zf(+) (Promega, Madison, Wis.) using standard molecular biology techniques. The replicon consists of (i) the HCV 5′ UTR fused to the first 12 amino acids of the capsid protein, (ii) the neomycin phosphotransferase gene (neo), (iii) the IRES from encephalomyocarditis virus (EMCV), and (iv) HCV NS3 to NS5B genes and the HCV 3′ UTR. Plasmid DNAs were linearized with ScaI and RNA transcripts were synthesized in vitro using the T7 MegaScript transcription kit (Ambion, Austin, Tex.) according to manufacturer's directions. In vitro transcripts of the cDNA were transfected into the human hepatoma cell line, HUH-7. […] Resulting cell lines were characterized for positive and negative strand RNA production and protein production over time.
The HCV replicon FRET assay was developed to monitor the inhibitory effects of compounds described in the disclosure on HCV viral replication. HUH-7 cells, constitutively expressing the HCV replicon, were grown in Dulbecco's Modified Eagle Media (DMEM) (Gibco-BRL) containing 10% Fetal calf serum (FCS) (Sigma) and 1 mg/ml G418 (Gibco-BRL). Cells were seeded the night before (1.5×10^4 cells/well) in 96-well tissue-culture sterile plates. Compound and no compound controls were prepared in DMEM containing 4% FCS, 1:100 Penicillin/Streptomysin (Gibco-BRL), 1:100 L-glutamine and 5% DMSO in the dilution plate (0.5% DMSO final concentration in the assay). Compound/DMSO mixes were added to the cells and incubated for 4 days at 37° C. After 4 days, cells were first assessed for cytotoxicity using alamar Blue (Trek Diagnotstic Systems) for a CC50 reading. The toxicity of compound (CC50) was determined by adding 1/10th volume of alamarBlue to the media incubating the cells. After 4 h, the fluorescence signal from each well was read, with an excitation wavelength at 530 nm and an emission wavelength of 580 nm, using the Cytofluor Series 4000 (Perspective Biosystems). Plates were then rinsed thoroughly with Phosphate-Buffered Saline (PBS) (3 times 150 μl). The cells were lysed with 25 μl of a lysis assay reagent containing an HCV protease substrate (5× cell Luciferase cell culture lysis reagent (Promega #E153A) diluted to 1× with distilled water, NaCl added to 150 mM final, the FRET peptide substrate (as described for the enzyme assay above) diluted to 10 μM final from a 2 mM stock in 100% DMSO. The plate was then placed into the Cytofluor 4000 instrument which had been set to 340 nm excitation/490 nm emissions, automatic mode for 21 cycles and the plate read in a kinetic mode. EC50 determinations were carried out as described for the IC50 determinations.

SMILES: C=C[C@@H]1C[C@]1(NC(=O)[C@@H]1C[C@@H](Oc2cc(-c3ccccc3)nc3cc(OC)ccc23)CN1C(=O)[C@@H](OC(=O)Nc1ccc(N(C)C)cc1)C(C)(C)C)C(=O)NS(=O)(=O)C1CC1 [Example 5,Compound 7]
- IC50 [1]: 100 to 1000 nM
- EC50 [2]: 500 to 5000 nM

SMILES: C=C[C@@H]1C[C@]1(NC(=O)[C@@H]1C[C@@H](Oc2nccc3ccccc23)CN1C(=O)[C@@H](O)C(C)(C)C)C(=O)NS(=O)(=O)C1CC1 [Example 8]
- IC50 [1]: 100 to 1000 nM
- EC50 [2]: 500 to 5000 nM

SMILES: C=C[C@@H]1C[C@]1(NC(=O)[C@@H]1C[C@@H](Oc2nccc3ccccc23)CN1C(=O)[C@@H](OC(=O)NC1CCCC1)C(C)(C)C)C(=O)NS(=O)(=O)C1CC1 [Example 9]
- IC50 [1]: 100 to 1000 nM
- EC50 [2]: 500 to 5000 nM

SMILES: CCC1C[C@]1(NC(=O)[C@@H]1C[C@@H](Oc2cc(-c3ccccc3)nc3cc(OC)ccc23)CN1C(=O)C(O)C(C)(C)C)C(=O)NS(=O)(=O)C1CC1 (stereo partly shown) [Example 10]
- IC50 [1]: < 100 nM
- EC50 [2]: 500 to 5000 nM

SMILES: CCC1C[C@]1(NC(=O)[C@@H]1C[C@@H](Oc2cc(-c3ccccc3)nc3cc(OC)ccc23)CN1C(=O)C(O)C(C)C)C(=O)NS(=O)(=O)C1CC1 (stereo partly shown) [Example 11]
- IC50 [1]: < 100 nM
- EC50 [2]: 500 to 5000 nM

SMILES: C=C[C@@H]1C[C@]1(NC(=O)[C@@H]1CC(Oc2cc(-c3ccccc3)nc3cc(OC)ccc23)CN1C(=O)[C@@H](O)C(C)(C)C)C(=O)NS(=O)(=O)C1(CC2CC2)CC1 (stereo partly shown) [Example 12]
- IC50 [1]: < 100 nM
- EC50 [2]: 500 to 5000 nM

SMILES: CCC1C[C@]1(NC(=O)[C@@H]1C[C@@H](Oc2cc(-c3ccccc3)nc3cc(OC)ccc23)CN1C(=O)[C@@H](O)C1CCCCC1)C(=O)NS(=O)(=O)C1CC1 (stereo partly shown) [Example 13]
- IC50 [1]: < 100 nM
- EC50 [2]: 500 to 5000 nM

SMILES: C=C[C@@H]1C[C@]1(NC(=O)[C@@H]1C[C@@H](Oc2cc(-c3ccccc3)nc3cc(OC)ccc23)CN1C(=O)C(O)c1ccccc1)C(=O)NS(=O)(=O)C1CC1 (stereo partly shown) [Example 14]
- IC50 [1]: 100 to 1000 nM
- EC50 [2]: > 5000 nM

SMILES: CCC1C[C@]1(NC(=O)[C@@H]1C[C@@H](Oc2cc(-c3ccccc3)nc3cc(OC)ccc23)CN1C(=O)C1(O)CC1)C(=O)NS(=O)(=O)C1CC1 (stereo partly shown) [Example 15]
- IC50 [1]: 100 to 1000 nM
- EC50 [2]: 500 to 5000 nM

SMILES: CCC1C[C@]1(NC(=O)[C@@H]1C[C@@H](Oc2cc(-c3ccccc3)nc3cc(OC)ccc23)CN1C(=O)C(O)Cc1c[nH]cn1)C(=O)NS(=O)(=O)C1CC1 (stereo partly shown) [Example 16]
- IC50 [1]: 100 to 1000 nM
- EC50 [2]: > 5000 nM

SMILES: CCC1C[C@]1(NC(=O)[C@@H]1C[C@@H](Oc2cc(-c3ccccc3)nc3cc(OC)ccc23)CN1C(=O)[C@@H](O)CC(C)C)C(=O)NS(=O)(=O)C1CC1 (stereo partly shown) [Example 17]
- IC50 [1]: 100 to 1000 nM
- EC50 [2]: 500 to 5000 nM

SMILES: C=C[C@@H]1C[C@]1(NC(=O)[C@@H]1C[C@@H](Oc2cc(-c3ccccc3)nc3cc(OC)ccc23)CN1C(=O)[C@H](O)c1ccccc1)C(=O)NS(=O)(=O)C1CC1 [Example 18]
- IC50 [1]: 100 to 1000 nM
- EC50 [2]: > 5000 nM

SMILES: C=C[C@@H]1C[C@]1(NC(=O)[C@@H]1CC(Oc2nc(-c3ccc(OC(F)(F)F)cc3)cc3cc(OC)ccc23)CN1C(=O)[C@@H](O)C(C)(C)C)C(=O)NS(=O)(=O)C1CC1 (stereo partly shown) [Example 20]
- IC50 [1]: < 100 nM
- EC50 [2]: 500 to 5000 nM

SMILES: C=C[C@@H]1CC1(NC(=O)[C@@H]1C[C@@H](Oc2cc(-c3ccccc3)nc3cc(OC)ccc23)CN1C(=O)[C@@H](OC(=O)NC(C)(C)C)C(C)(C)C)C(=O)NS(=O)(=O)C1(CC2CC2)CC1 (stereo partly shown) [Example 22]
- IC50 [1]: < 100 nM
- EC50 [2]: 500 to 5000 nM

SMILES: C=C[C@@H]1C[C@]1(NC(=O)[C@@H]1C[C@@H](Oc2nc(-c3ccc(OC(F)(F)F)cc3)cc3cc(OC)ccc23)CN1C(=O)[C@@H](OC(=O)NC(C)(C)C)C(C)(C)C)C(=O)NS(=O)(=O)C1CC1 [Example 23]
- IC50 [1]: < 100 nM
- EC50 [2]: 500 to 5000 nM

SMILES: C=C[C@@H]1C[C@]1(NC(=O)[C@@H]1C[C@@H](Oc2nccc3ccccc23)CN1C(=O)[C@@H](OC(=O)NC(C)(C)C)C(C)(C)C)C(=O)NS(=O)(=O)C1CC1 [Example 24]
- IC50 [1]: 100 to 1000 nM
- EC50 [2]: 500 to 5000 nM

SMILES: C=C[C@@H]1C[C@]1(NC(=O)[C@@H]1C[C@@H](Oc2nccc3ccccc23)CN1C(=O)[C@@H](OC(=O)NCC)C(C)(C)C)C(=O)NS(=O)(=O)C1CC1 [Example 25]
- IC50 [1]: 100 to 1000 nM
- EC50 [2]: 500 to 5000 nM

SMILES: C=C[C@@H]1C[C@]1(NC(=O)[C@@H]1C[C@@H](Oc2nccc3ccccc23)CN1C(=O)[C@@H](OC(=O)NC(C)C)C(C)(C)C)C(=O)NS(=O)(=O)C1CC1 [Example 26]
- IC50 [1]: 100 to 1000 nM
- EC50 [2]: 500 to 5000 nM

SMILES: C=C[C@@H]1C[C@]1(NC(=O)[C@@H]1C[C@@H](Oc2nccc3ccccc23)CN1C(=O)[C@@H](OC(=O)NC1CCCCC1)C(C)(C)C)C(=O)NS(=O)(=O)C1CC1 [Example 27]
- IC50 [1]: < 100 nM
- EC50 [2]: 500 to 5000 nM

SMILES: C=C[C@@H]1C[C@]1(NC(=O)[C@@H]1C[C@@H](Oc2nccc3ccccc23)CN1C(=O)[C@@H](OC(=O)Nc1ccccc1)C(C)(C)C)C(=O)NS(=O)(=O)C1CC1 [Example 28]
- IC50 [1]: 100 to 1000 nM
- EC50 [2]: 500 to 5000 nM
